The supplement of paper PMC11451515

Tested on: NOMO1
Test: cell viability relative to DMSO control; higher = less cytotoxic
Details: 48 h
Summary of the method: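 Library compounds in DMSO were pin-dosed in an 11-point threefold series (47 μM to 0.79 nM) onto leukemia cells in 1536-well plates (5 μl). Plates held 500 cells/well of NOMO1 or SEM or 1000 cells/well of P12-Ichikawa, each adapted for at least four passages in each medium. Luminescence was read with CellTiter-Glo One after 48 h at 37°C. Viability means the per-plate percentage relative to DMSO wells, using cell-free wells as background.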

[1] = RPMI 5 mM glucose + 10% FBS, 0.000781 µM
[2] = RPMI 5 mM glucose + 10% FBS, 0.00234 µM
[3] = RPMI 5 mM glucose + 10% FBS, 0.00702 µM
[4] = RPMI 5 mM glucose + 10% FBS, 0.0211 µM
[5] = RPMI 5 mM glucose + 10% FBS, 0.0632 µM
[6] = RPMI 5 mM glucose + 10% FBS, 0.19 µM
[7] = RPMI 5 mM glucose + 10% FBS, 0.569 µM
[8] = RPMI 5 mM glucose + 10% FBS, 1.71 µM
[9] = RPMI 5 mM glucose + 10% FBS, 5.12 µM
[10] = RPMI 5 mM glucose + 10% FBS, 15.4 µM
[11] = RPMI 5 mM glucose + 10% FBS, 46.1 µM
[12] = RPMI 5 mM glucose + 10% dialyzed FBS, 0.000781 µM
[13] = RPMI 5 mM glucose + 10% dialyzed FBS, 0.00234 µM
[14] = RPMI 5 mM glucose + 10% dialyzed FBS, 0.00702 µM
[15] = RPMI 5 mM glucose + 10% dialyzed FBS, 0.0211 µM
[16] = RPMI 5 mM glucose + 10% dialyzed FBS, 0.0632 µM
[17] = RPMI 5 mM glucose + 10% dialyzed FBS, 0.19 µM
[18] = RPMI 5 mM glucose + 10% dialyzed FBS, 0.569 µM
[19] = RPMI 5 mM glucose + 10% dialyzed FBS, 1.71 µM
[20] = RPMI 5 mM glucose + 10% dialyzed FBS, 5.12 µM
[21] = RPMI 5 mM glucose + 10% dialyzed FBS, 15.4 µM
[22] = RPMI 5 mM glucose + 10% dialyzed FBS, 46.1 µM
[23] = HPLM + 10% dialyzed FBS, 0.000781 µM
[24] = HPLM + 10% dialyzed FBS, 0.00234 µM
[25] = HPLM + 10% dialyzed FBS, 0.00702 µM
[26] = HPLM + 10% dialyzed FBS, 0.0211 µM
[27] = HPLM + 10% dialyzed FBS, 0.0632 µM
[28] = HPLM + 10% dialyzed FBS, 0.19 µM
[29] = HPLM + 10% dialyzed FBS, 0.569 µM
[30] = HPLM + 10% dialyzed FBS, 1.71 µM
[31] = HPLM + 10% dialyzed FBS, 5.12 µM
[32] = HPLM + 10% dialyzed FBS, 15.4 µM
[33] = HPLM + 10% dialyzed FBS, 46.1 µM

Q: `COc1ccc(C(=O)c2c(C)n(CCN3CCOCC3)c3cc(I)ccc23)cc1` was tested. Which cell viability [1] did it give?
A: 105%

Q: What about the cell viability [2] of the same compound?
A: 112%

Q: What about the cell viability [3] of the same compound?
A: 126%

Q: And the cell viability [4]?
A: 133%

Q: And the cell viability [5]?
A: 138%

Q: What about the cell viability [6] of the same compound?
A: 122%

Q: And the cell viability [7]?
A: 119%

Q: What about the cell viability [8] of the same compound?
A: 29.9%

Q: And the cell viability [9]?
A: 27.1%

Q: What about the cell viability [10] of the same compound?
A: 24.9%

Q: What about the cell viability [11] of the same compound?
A: 21.1%

Q: What about the cell viability [12] of the same compound?
A: 100%

Q: And the cell viability [13]?
A: 115%

Q: And the cell viability [14]?
A: 124%

Q: What about the cell viability [15] of the same compound?
A: 116%

Q: And the cell viability [16]?
A: 130%

Q: And the cell viability [17]?
A: 126%

Q: What about the cell viability [18] of the same compound?
A: 137%

Q: What about the cell viability [19] of the same compound?
A: 52.3%

Q: And the cell viability [20]?
A: 29.1%

Q: And the cell viability [21]?
A: 27.4%

Q: What about the cell viability [22] of the same compound?
A: 23.3%

Q: For `CC(N[C@H]1CCCC[C@@H]1NC(=O)c1ccc(Cl)cc1)c1cccc2ccccc12` (stereo partly drawn), which cell viability [23] is on record?
A: 117%

Q: What about the cell viability [24] of the same compound?
A: 131%

Q: And the cell viability [25]?
A: 112%

Q: What about the cell viability [26] of the same compound?
A: 127%

Q: And the cell viability [27]?
A: 113%

Q: And the cell viability [28]?
A: 110%

Q: What about the cell viability [29] of the same compound?
A: 139%

Q: What about the cell viability [30] of the same compound?
A: 86.3%

Q: What about the cell viability [31] of the same compound?
A: 83%

Q: And the cell viability [32]?
A: 28%

Q: What about the cell viability [33] of the same compound?
A: 29.5%

Q: And the cell viability [1]?
A: 100%

Q: What about the cell viability [2] of the same compound?
A: 107%

Q: And the cell viability [3]?
A: 120%

Q: What about the cell viability [4] of the same compound?
A: 114%

Q: What about the cell viability [5] of the same compound?
A: 110%

Q: What about the cell viability [6] of the same compound?
A: 113%

Q: What about the cell viability [7] of the same compound?
A: 114%

Q: What about the cell viability [8] of the same compound?
A: 102%

Q: And the cell viability [9]?
A: 105%

Q: What about the cell viability [10] of the same compound?
A: 19.9%

Q: What about the cell viability [11] of the same compound?
A: 18.2%

Q: And the cell viability [12]?
A: 102%

Q: And the cell viability [13]?
A: 108%

Q: And the cell viability [14]?
A: 113%

Q: What about the cell viability [15] of the same compound?
A: 112%

Q: And the cell viability [16]?
A: 111%

Q: What about the cell viability [17] of the same compound?
A: 117%

Q: And the cell viability [18]?
A: 103%

Q: And the cell viability [19]?
A: 103%

Q: What about the cell viability [20] of the same compound?
A: 107%

Q: And the cell viability [21]?
A: 25.4%

Q: What about the cell viability [22] of the same compound?
A: 24.2%

Q: Which cell viability [23] does the source give for `CC(C)c1cc(C(C)C)c(CC(=O)N[S+](=O)([O-])Oc2c(C(C)C)cccc2C(C)C)c(C(C)C)c1` here?
A: 103%

Q: What about the cell viability [24] of the same compound?
A: 110%

Q: And the cell viability [25]?
A: 93.9%

Q: What about the cell viability [26] of the same compound?
A: 114%

Q: What about the cell viability [27] of the same compound?
A: 112%

Q: And the cell viability [28]?
A: 88.6%

Q: And the cell viability [29]?
A: 92.2%

Q: What about the cell viability [30] of the same compound?
A: 98.8%

Q: What about the cell viability [31] of the same compound?
A: 100%

Q: What about the cell viability [32] of the same compound?
A: 92.5%

Q: And the cell viability [33]?
A: 88.9%

Q: And the cell viability [1]?
A: 96.3%

Q: What about the cell viability [2] of the same compound?
A: 89.8%

Q: And the cell viability [3]?
A: 88.6%

Q: What about the cell viability [4] of the same compound?
A: 82.8%

Q: And the cell viability [5]?
A: 94.8%

Q: What about the cell viability [6] of the same compound?
A: 87.8%

Q: What about the cell viability [7] of the same compound?
A: 105%

Q: And the cell viability [8]?
A: 93%

Q: And the cell viability [9]?
A: 98.3%

Q: And the cell viability [10]?
A: 90.5%

Q: What about the cell viability [11] of the same compound?
A: 86.9%

Q: What about the cell viability [12] of the same compound?
A: 95.9%

Q: What about the cell viability [13] of the same compound?
A: 89.4%

Q: And the cell viability [14]?
A: 91.4%

Q: And the cell viability [15]?
A: 89.7%

Q: What about the cell viability [16] of the same compound?
A: 87.4%

Q: And the cell viability [17]?
A: 91.4%

Q: What about the cell viability [18] of the same compound?
A: 97%

Q: What about the cell viability [19] of the same compound?
A: 84.5%

Q: What about the cell viability [20] of the same compound?
A: 90.8%

Q: What about the cell viability [21] of the same compound?
A: 87.9%

Q: What about the cell viability [22] of the same compound?
A: 65.3%

Q: Which cell viability [23] does the source give for `CN1CC(=O)N2[C@H](c3ccc4c(c3)OCO4)c3[nH]c4ccccc4c3C[C@@H]2C1=O` here?
A: 111%

Q: What about the cell viability [24] of the same compound?
A: 99.6%

Q: And the cell viability [25]?
A: 109%

Q: And the cell viability [26]?
A: 107%

Q: And the cell viability [27]?
A: 103%

Q: And the cell viability [28]?
A: 94.8%

Q: What about the cell viability [29] of the same compound?
A: 98.7%

Q: And the cell viability [30]?
A: 83.3%

Q: And the cell viability [31]?
A: 91.5%

Q: And the cell viability [32]?
A: 90.7%

Q: And the cell viability [33]?
A: 74.8%

Q: What about the cell viability [1] of the same compound?
A: 97.2%

Q: What about the cell viability [2] of the same compound?
A: 96.1%

Q: And the cell viability [3]?
A: 89.1%

Q: And the cell viability [4]?
A: 88.4%

Q: What about the cell viability [5] of the same compound?
A: 101%

Q: What about the cell viability [6] of the same compound?
A: 101%

Q: And the cell viability [7]?
A: 97%

Q: And the cell viability [8]?
A: 83.9%

Q: What about the cell viability [9] of the same compound?
A: 92.8%

Q: And the cell viability [10]?
A: 97.8%

Q: What about the cell viability [11] of the same compound?
A: 77%

Q: And the cell viability [12]?
A: 107%

Q: What about the cell viability [13] of the same compound?
A: 93.5%

Q: And the cell viability [14]?
A: 97.6%

Q: What about the cell viability [15] of the same compound?
A: 98.3%

Q: What about the cell viability [16] of the same compound?
A: 88.4%

Q: And the cell viability [17]?
A: 103%

Q: And the cell viability [18]?
A: 98.9%

Q: What about the cell viability [19] of the same compound?
A: 89%

Q: What about the cell viability [20] of the same compound?
A: 81.3%

Q: And the cell viability [21]?
A: 109%

Q: What about the cell viability [22] of the same compound?
A: 79.1%

Q: Which results are given for `COc1ccc2c(c1)[C@]13CCCCC1C(C2)N(C)CC3` (stereo partly drawn)?
A: cell viability [1]: 104%; cell viability [2]: 117%; cell viability [3]: 107%; cell viability [4]: 121%; cell viability [5]: 118%; cell viability [6]: 108%; cell viability [7]: 109%; cell viability [8]: 111%; cell viability [9]: 121%; cell viability [10]: 90.3%; cell viability [11]: 101%; cell viability [12]: 111%; cell viability [13]: 114%; cell viability [14]: 116%; cell viability [15]: 119%; cell viability [16]: 135%; cell viability [17]: 130%; cell viability [18]: 114%; cell viability [19]: 132%; cell viability [20]: 115%; cell viability [21]: 118%; cell viability [22]: 84.2%
